Laboratory results published in patent US8476253B2, “Amide derivative” (Daiichi Sankyo Company, Limited, priority 2009, dated 2013).
Structures can show the parent of a compound that is named as a salt. Where two headings read alike, the source gives them in different places.

Columns and labels:
neurokinin NK2 receptor = target: T1, neurokinin NK2 receptor (Cavia porcellus, UniProt Q64077); assay: Effect of suppressing neurokinin A-induced airway contraction (in vivo, intratracheal administration); set-up: species or system guinea pig; conditions: guinea pigs, intratracheal administration 60 minutes before 4 μg/kg i.v. NKA, AUC of increase in airway pressure over 10 minutes; for ED50: guinea pig, read-out: ID50 (the source's name)
T1 construct: Using healthy guinea pigs (body weight, 350 to 550 g; Hartley male guinea pigs); from tissue; host or cells: live anaesthetised Hartley male guinea pigs (airway, in vivo)
T1 sequence (Q64077 1-402): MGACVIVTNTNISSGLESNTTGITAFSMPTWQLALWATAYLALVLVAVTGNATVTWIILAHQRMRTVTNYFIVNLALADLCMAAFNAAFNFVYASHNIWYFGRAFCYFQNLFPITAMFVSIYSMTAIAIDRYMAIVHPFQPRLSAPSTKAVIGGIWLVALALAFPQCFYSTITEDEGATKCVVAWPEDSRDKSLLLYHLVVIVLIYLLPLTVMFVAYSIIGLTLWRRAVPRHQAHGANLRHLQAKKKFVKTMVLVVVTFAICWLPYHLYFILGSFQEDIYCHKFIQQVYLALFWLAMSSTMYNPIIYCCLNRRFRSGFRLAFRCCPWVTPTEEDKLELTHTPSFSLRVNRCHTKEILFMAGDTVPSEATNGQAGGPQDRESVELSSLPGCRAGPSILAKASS
Procedure, shortened: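 Anesthetized, gallamine-paralysed, ventilated male Hartley guinea pigs received compound in 5% glucose intratracheally 60 minutes before 4 μg/kg NKA i.v. AUC of airway pressure increase over 10 minutes gave inhibition versus vehicle controls, expressed as ID50.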

human NK2 receptor = target: T2, human NK2 receptor (Homo sapiens, UniProt P21452); assay: Test for binding to human NK2 receptor
T2 construct: expressed in transfected cells; host or cells: COS cells
T2 sequence (P21452 1-398): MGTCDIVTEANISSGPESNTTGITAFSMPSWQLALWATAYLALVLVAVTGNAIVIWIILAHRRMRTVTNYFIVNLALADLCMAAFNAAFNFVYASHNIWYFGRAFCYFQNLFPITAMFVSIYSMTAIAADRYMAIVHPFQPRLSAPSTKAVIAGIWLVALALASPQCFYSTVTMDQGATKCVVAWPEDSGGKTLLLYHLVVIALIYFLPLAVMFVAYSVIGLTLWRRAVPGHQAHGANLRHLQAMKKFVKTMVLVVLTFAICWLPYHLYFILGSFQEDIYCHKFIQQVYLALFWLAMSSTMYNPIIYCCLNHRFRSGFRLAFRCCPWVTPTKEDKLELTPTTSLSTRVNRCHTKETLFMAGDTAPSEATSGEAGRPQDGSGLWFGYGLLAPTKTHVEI
Procedure, shortened: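 Radioligand binding with [^3H]SR 48968 on cryopreserved COS cells expressing human NK2 receptor (5.0×10^5 cells/mL), in 50 mM Tris-HCl pH 7.4 with BSA, MnCl2 and protease inhibitors. Bound label collected on PEI-treated GF/B filters, counted by liquid scintillation; Ki derived from IC50 and radioligand Kd.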

[1] = COS cells expressing human NK2 receptor, [3H]SR 48968 1 nM, Ki from IC50 and Kd, read-out: Ki

| SMILES | ED50 (neurokinin NK2 receptor) [mg/kg] | Ki (human NK2 receptor; [1]) [nM] | Ki (human NK2 receptor) [nM] | ID50 (neurokinin NK2 receptor) [µg/kg] |
| --- | --- | --- | --- | --- |
| CN(CCN1CCC(OC(=O)Nc2ccccc2-c2ccccc2)CC1)C(=O)CCCCCNc1ccc(C(=O)N(C)CCCN(C)C(=O)CO[C@H]2Cc3ccccc3C23CCN(CC[C@@]2(c4ccc(F)cc4)CN(C(=O)c4cc(C(F)(F)F)cc(C(F)(F)F)c4)CO2)CC3)cc1 [Example 72, 1-(2-{[6-({4-[{3-[({[(2S)-1′-{2-[(5R)-3-[3,5-Bis(trifluoromethyl)benzoyl]-5-(4-fluorophenyl)-1,3-oxazolidin-5-yl]ethyl}-2,3-dihydrospiro[indene-1,4′-piperidin]-2-yl]oxy}acetyl)(methyl)amino]propyl}(methyl)carbamoyl]phenyl}amino)hexanoyl](methyl)amino}ethyl)piperidin-4-yl biphenyl-2-ylcarbamate] | 0.0151 | 0.52 | – | – |
| CN(CCCCCC(=O)N(C)CCN1CCC(OC(=O)Nc2ccccc2-c2ccccc2)CC1)Cc1ccc(C(=O)N(C)CCCN(C)C(=O)CO[C@H]2Cc3ccccc3C23CCN(CC[C@@]2(c4ccc(F)cc4)CN(C(=O)c4cc(C(F)(F)F)cc(C(F)(F)F)c4)CO2)CC3)cc1 [Example 74, 1-{2-[{6-[{4-[{3-[({[(2S)-1′-{2-[(5R)-3-[3,5-Bis(trifluoromethyl)benzoyl]-5-(4-fluorophenyl)-1,3-oxazolidin-5-yl]ethyl}-2,3-dihydrospiro[indene-1,4′-piperidin]-2-yl]oxy}acetyl)(methyl)amino]propyl}(methyl)carbamoyl]benzyl}(methyl)amino]hexanoyl}(methyl)amino]ethyl}piperidin-4-yl biphenyl-2-ylcarbamate] | 0.0127 | 0.14 | – | – |
| CN(CCN1CCC(OC(=O)Nc2ccccc2-c2ccccc2)CC1)C(=O)CCCCCN(C)c1ccc(C(=O)N(C)CCCN(C)C(=O)CO[C@H]2Cc3ccccc3C23CCN(CC[C@@]2(c4ccc(F)cc4)CN(C(=O)c4cc(C(F)(F)F)cc(C(F)(F)F)c4)CO2)CC3)cc1 [Example 76, 1-{2-[{6-[{4-[{3-[({[(2S)-1′-{2-[(5R)-3-[3,5-Bis(trifluoromethyl)benzoyl]-5-(4-fluorophenyl)-1,3-oxazolidin-5-yl]ethyl}-2,3-dihydrospiro[indene-1,4′-piperidin]-2-yl]oxy}acetyl)(methyl)amino]propyl}(methyl)carbamoyl]phenyl}(methyl)amino]hexanoyl}(methyl)amino]ethyl}piperidin-4-yl biphenyl-2-ylcarbamate] | 0.0176 | 1 | – | – |
| CN(CCN1CCC(OC(=O)Nc2ccccc2-c2ccccc2)CC1)C(=O)CCCCCNc1ccc(N(C)C(=O)CCCN(C)C(=O)CO[C@H]2Cc3ccccc3C23CCN(CC[C@@]2(c4ccc(F)cc4)CN(C(=O)c4cc(C(F)(F)F)cc(C(F)(F)F)c4)CO2)CC3)cc1 [Example 84, 1-(2-{[6-({4-[{-4-[({[(2S)-1′-{2-[(5R)-3-[3,5-Bis(trifluoromethyl)benzoyl]-5-(4-fluorophenyl)-1,3-oxazolidin-5-yl]ethyl}-2,3-dihydrospiro[indene-1,4′-piperidin]-2-yl]oxy}acetyl)(methyl)amino]butanoyl}(methyl)amino]phenyl}amino)hexanoyl](methyl)amino}ethyl)piperidin-4-yl biphenyl-2-ylcarbamate trihydrochloride] | 0.0221 | – | 0.89 | – |
| CN(CCN1CCC(OC(=O)Nc2ccccc2-c2ccccc2)CC1)C(=O)CCCCCNc1nc2ccc(C(=O)N(C)CCCN(C)C(=O)CO[C@H]3Cc4ccccc4C34CCN(CC[C@@]3(c5ccc(F)cc5)CN(C(=O)c5cc(C(F)(F)F)cc(C(F)(F)F)c5)CO3)CC4)cc2s1 [Example 93, 1-(2-{[6-({6-[{3-[({[(2S)-1′-{2-[(5R)-3-[3,5-Bis(trifluoromethyl)benzoyl]-5-(4-fluorophenyl)-1,3-oxazolidin-5-yl]ethyl}-2,3-dihydrospiro[indene-1,4′-piperidin]-2-yl]oxy}acetyl)(methy)amino]propyl}(methyl)carbamoyl]-1,3-benzothiazol-2-yl}amino)hexanoyl](methyl)amino}ethyl)piperidin-4-yl biphenyl-2-ylcarbamate] | – | 0.55 | – | 43.7 |
| CN(CCN1CCC(OC(=O)Nc2ccccc2-c2ccccc2)CC1)C(=O)CCNc1ccc(C(=O)N(C)CCCN(C)C(=O)CO[C@H]2Cc3ccccc3C23CCN(CC[C@@]2(c4ccc(F)cc4)CN(C(=O)c4cc(C(F)(F)F)cc(C(F)(F)F)c4)CO2)CC3)cc1 [Example 94, 1-{2-[(N-{4-[{3-[({[(2S)-1′-{2-[(5R)-3-[3,5-Bis(trifluoromethyl)benzoyl]-5-(4-fluorophenyl)-1,3-oxazolidin-5-yl]ethyl}-2,3-dihydrospiro[indene-1,4′-piperidin]-2-yl]oxy}acetyl)(methyl)amino]propyl}(methyl)carbamoyl]phenyl}-β-alanyl)(methyl)amino]ethyl}piperidin-4-yl biphenyl-2-ylcarbamate] | 0.0431 | 0.75 | – | – |
| CN(CCN1CCC(OC(=O)Nc2ccccc2-c2ccccc2)CC1)C(=O)CCN(C)c1ccc(C(=O)N(C)CCCN(C)C(=O)CO[C@H]2Cc3ccccc3C23CCN(CC[C@@]2(c4ccc(F)cc4)CN(C(=O)c4cc(C(F)(F)F)cc(C(F)(F)F)c4)CO2)CC3)cc1 [Example 95, 1-{2-[(N-{4-[{3-[({[(2S)-1′-{2-[(5R)-3-[3,5-Bis(trifluoromethyl)benzoyl]-5-(4-fluorophenyl)-1,3-oxazolidin-5-yl]ethyl}-2,3-dihydrospiro[indene-1,4′-piperidin]-2-yl]oxy}acetyl)(methy)amino]propyl}(methyl)carbamoyl]phenyl}-N-methyl-β-alanyl)(methyl)amino]ethyl}piperidin-4-yl biphenyl-2-ylcarbamate] | 0.039 | 0.81 | – | – |
| Cc1nc(NCCCCCC(=O)N(C)CCN2CCC(OC(=O)Nc3ccccc3-c3ccccc3)CC2)sc1C(=O)N(C)CCCN(C)C(=O)CO[C@H]1Cc2ccccc2C12CCN(CC[C@@]1(c3ccc(F)cc3)CN(C(=O)c3cc(C(F)(F)F)cc(C(F)(F)F)c3)CO1)CC2 [Example 105, 1-(2-{[6-({5-[{3-[({[(2S)-1′-{2-[(5R)-3-[3,5-Bis(trifluoromethyl)benzoyl]-5-(4-fluorophenyl)-1,3-oxazolidin-5-yl]ethyl}-2,3-dihydrospiro[indene-1,4′-piperidin]-2-yl]oxy}acetyl)(methyl)amino]propyl}(methyl)carbamoyl]-4-methyl-1,3-thiazol-2-yl}amino)hexanoyl](methyl)amino}ethyl)piperidin-4-yl biphenyl-2-ylcarbamate trihydrochloride] | 0.0136 | – | 0.85 | – |
| CN(CCN1CCC(OC(=O)Nc2ccccc2-c2ccccc2)CC1)C(=O)CCCCCNc1ccc(C(=O)N2CCCN(C(=O)CO[C@H]3Cc4ccccc4C34CCN(CC[C@@]3(c5ccc(F)cc5)CN(C(=O)c5cc(C(F)(F)F)cc(C(F)(F)F)c5)CO3)CC4)CC2)cc1 [Example 110, 1-{2-[{6-[(4-{[4-({[(2S)-1′-{2-[(5R)-3-[3,5-Bis(trifluoromethyl)benzoyl]-5-(4-fluorophenyl)-1,3-oxazolidin-5-yl)ethyl}-2,3-dihydrospiro[indene-1,4′-piperidin]-2-yl]oxy}acetyl)-1,4-diazepan-1-yl]carbonyl}phenyl)amino]hexanoyl}(methyl)amino]ethyl}piperidin-4-yl biphenyl-2-ylcarbamate trihydrochloride] | 0.0135 | – | 0.6 | – |
